Data from patent US20100247456A1, “METHODS AND COMPOSITIONS FOR PREVENTING CARIES” (priority 2009, published 2010).
“And” between values parts separate entries of the source, which are not always exact repeats. Equal entries are not always repeated.

Test system: caries
Test: 6-month comparison of silver-diamine-fluoride (SDF) and fluoride varnish in school aged children
Assay type: in vivo
Description: A fluoride composition was used in the study.
The compositions were applied once at the time of the initial exam using a tiny brush to any decayed area for 3 min, then the child rinsed.

[1] = after 6 months, applied once to decayed area for 3 min

Q: What does the source list for silver diamine fluoride [SDF]?
A: SDF Number Needed To Treat, Active Caries ([1/(Varnish % − SDF %)], 6 months): 1.2; SDF Prevented Fraction, Active Caries ([(Varnish % − SDF %)/Varnish %], 6 months): 82.7; reduction in active caries compared to fluoride varnish (after 6 months): about 80%; Active Caries, # of School Children, Frequency [1]: 20; Active Caries, # of School Children, Percent [1]: 16% and 16.8%; Active and Arrested Caries in same child, # of School Children, Frequency [1]: 69; Active and Arrested Caries in same child, # of School Children, Percent [1]: 58.0%; Arrested Caries, # of School Children, Frequency [1]: 27; Arrested Caries, # of School Children, Percent [1]: 22.7%; Dental Fillings, # of School Children, Frequency [1]: 3; Dental Fillings, # of School Children, Percent [1]: 2.5%
